Reference: the supplement of paper PMC6045584
± gives the standard deviation of the averaged measurements.

Experiments:
[1] = compound: Cc1ccc(NC(=O)c2ccc(CN3CCN(C)CC3)cc2)cc1Nc1nccc(-c2cccnc2)n1 [IMATINIB]; experiment: surviving fraction relative to DMSO-only wells; higher = less growth inhibition; details: exposure time: 5 days
Summary of the method: (§1)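 Tumour cell lines were grown to log phase and seeded at 250–500 cells per well in 384-well plates. They were exposed continuously to inhibitors at 0.5, 1, 5, 10, 50, 100, 500 and 1000 nM for five days, beginning 24 hours after seeding. Surviving fraction is CellTiter-Glo luminescence normalised to the median of DMSO-only wells.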

[2] = compound: C[C@H](CN(C)C)Oc1nc(Nc2cc3cccc(Cl)c3cn2)cnc1C#N; experiment: as above; details: exposure time: 5 days
Summary of the method: as §1

Test System | surviving fraction ([1]; 0.5 nM) | surviving fraction ([1]; 1 nM) | surviving fraction ([1]; 5 nM) | surviving fraction ([1]; 10 nM) | surviving fraction ([1]; 50 nM) | surviving fraction ([1]; 100 nM) | surviving fraction ([1]; 500 nM) | surviving fraction ([1]; 1000 nM) | surviving fraction ([2]; 0.5 nM) | surviving fraction ([2]; 1 nM) | surviving fraction ([2]; 5 nM) | surviving fraction ([2]; 10 nM) | surviving fraction ([2]; 50 nM) | surviving fraction ([2]; 100 nM) | surviving fraction ([2]; 500 nM) | surviving fraction ([2]; 1000 nM)
CCK81 LARGE INTESTINE | 0.813 ± 0.083 | 0.815 ± 0.09 | 0.81 ± 0.038 | 0.795 ± 0.048 | 0.706 ± 0.049 | 0.843 ± 0.11 | 0.741 ± 0.078 | 0.778 ± 0.047 | 0.681 ± 0.1 | 0.819 ± 0.097 | 0.726 ± 0.09 | 0.739 ± 0.029 | 0.774 ± 0.15 | 0.52 ± 0.084 | 0.349 ± 0.069 | 0.374 ± 0.049
G292 BONE | 1.01 ± 0.037 | 1.038 ± 0.0097 | 1.09 ± 0.024 | 1.05 ± 0.024 |  | 1.04 ± 0.028 | 0.862 ± 0.029 | 0.923 ± 0.065 | 1.06 ± 0.053 | 1.02 ± 0.012 | 1.05 ± 0.021 | 1.05 ± 0.075 | 1.107 ± 0.0061 | 1.08 ± 0.061 | 0.648 ± 0.046 | 0.43 ± 0.028
HCC38 BREAST | 1.32 ± 0.15 | 1.13 ± 0.13 | 1.39 ± 0.13 | 1.3 ± 0.27 | 1.31 ± 0.15 | 1.46 ± 0.21 | 1.08 ± 0.12 | 1.1 ± 0.029 | 1.25 ± 0.22 | 1.32 ± 0.18 | 1.36 ± 0.28 | 1.3 ± 0.14 | 0.989 ± 0.06 | 0.821 ± 0.23 | 0.125 ± 0.028 | 0.0697 ± 0.013
HCC70 BREAST | 1.116 ± 0.0051 | 1.08 ± 0.071 | 1.04 ± 0.04 | 1.1 ± 0.054 | 1.17 ± 0.11 | 1.15 ± 0.043 |  | 1.45 ± 0.69 | 1.07 ± 0.06 | 1.11 ± 0.14 | 1.01 ± 0.038 | 1.09 ± 0.034 | 1.1 ± 0.045 | 1.14 ± 0.025 | 0.639 ± 0.086 | 0.191 ± 0.021
HMLE3 BREAST | 1.08 ± 0.038 | 1.14 ± 0.11 | 1.11 ± 0.08 | 1.21 ± 0.062 | 1.14 ± 0.047 | 1.23 ± 0.13 | 1.16 ± 0.054 | 1.01 ± 0.089 | 1 ± 0.081 | 0.949 ± 0.035 | 1.01 ± 0.04 | 0.998 ± 0.056 | 1.07 ± 0.069 | 1.07 ± 0.1 | 0.93 ± 0.076 | 0.735 ± 0.025
HMT3552 BREAST | 1.01 ± 0.039 | 0.967 ± 0.041 | 1.04 ± 0.032 | 0.988 ± 0.057 | 1.15 ± 0.061 | 1.17 ± 0.062 | 1.18 ± 0.047 | 1.16 ± 0.076 | 0.984 ± 0.029 | 1.04 ± 0.043 | 1.08 ± 0.093 | 1.04 ± 0.036 | 1.22 ± 0.018 | 1.19 ± 0.064 | 0.121 ± 0.016 | 0.103 ± 0.01
HS57T BREAST |  | 1 ± 0.062 | 1.14 ± 0.016 | 1.14 ± 0.024 | 1.17 ± 0.069 | 1.09 ± 0.056 | 1.04 ± 0.034 | 1.01 ± 0.093 | 0.943 ± 0.054 | 0.933 ± 0.048 | 1.04 ± 0.039 | 1.06 ± 0.041 | 1.03 ± 0.025 | 0.929 ± 0.057 | 0.119 ± 0.0095 | 0.0913 ± 0.011
HS578T BREAST | 1.23 ± 0.27 | 1.01 ± 0.11 | 1.02 ± 0.12 | 1.14 ± 0.27 | 1.21 ± 0.18 | 1.07 ± 0.1 | 1.1 ± 0.16 | 1.2 ± 0.17 | 0.988 ± 0.17 | 1.02 ± 0.11 | 0.972 ± 0.14 | 1.04 ± 0.11 | 1.05 ± 0.041 | 0.796 ± 0.14 | 0.216 ± 0.028 | 0.191 ± 0.02
